Experimental data as given in publication PMC12738789, “Synthesis of an enhanced nanobiocatalyst system from Aspergillus niger as single green source” (Scientific Reports, 2025).

Tested on: T1, Aspergillus niger ATCC 16,878 lipase
T1 construct: gene lipA
Test: spectrophotometric p-nitrophenol release at […] nm, nonlinear Michaelis-Menten fit
Assay type: biochemical
Conditions: free enzyme; 0.1-1 mM pNPP; standard assay 0.1 M potassium phosphate pH 7.5, 37 °C, 2% Triton X-100

Km: 147 µM
Structure (SMILES): CCCCCCCCCCCCCCCC(=O)Oc1ccc([N+](=O)[O-])cc1 [4-nitrophenyl palmitate]
